Reference: US9193744B2, “Heterocyclic nuclear hormone receptor modulators” (AbbVie Inc., priority 2012, dated 2015)
Where two headings read alike, the source gives them in different places.

Legend:
[1] = target: T1, Glucocorticoid Receptor (GR) (Homo sapiens, UniProt P04150); test: GR Fluorescence Polarization Assay (PolarScreen Glucocorticoid Receptor Competitor Assay, Red); details: fluorescence polarization binding ranges
T1 construct: purchased Invitrogen P2893
T1 sequence (P04150 1-777): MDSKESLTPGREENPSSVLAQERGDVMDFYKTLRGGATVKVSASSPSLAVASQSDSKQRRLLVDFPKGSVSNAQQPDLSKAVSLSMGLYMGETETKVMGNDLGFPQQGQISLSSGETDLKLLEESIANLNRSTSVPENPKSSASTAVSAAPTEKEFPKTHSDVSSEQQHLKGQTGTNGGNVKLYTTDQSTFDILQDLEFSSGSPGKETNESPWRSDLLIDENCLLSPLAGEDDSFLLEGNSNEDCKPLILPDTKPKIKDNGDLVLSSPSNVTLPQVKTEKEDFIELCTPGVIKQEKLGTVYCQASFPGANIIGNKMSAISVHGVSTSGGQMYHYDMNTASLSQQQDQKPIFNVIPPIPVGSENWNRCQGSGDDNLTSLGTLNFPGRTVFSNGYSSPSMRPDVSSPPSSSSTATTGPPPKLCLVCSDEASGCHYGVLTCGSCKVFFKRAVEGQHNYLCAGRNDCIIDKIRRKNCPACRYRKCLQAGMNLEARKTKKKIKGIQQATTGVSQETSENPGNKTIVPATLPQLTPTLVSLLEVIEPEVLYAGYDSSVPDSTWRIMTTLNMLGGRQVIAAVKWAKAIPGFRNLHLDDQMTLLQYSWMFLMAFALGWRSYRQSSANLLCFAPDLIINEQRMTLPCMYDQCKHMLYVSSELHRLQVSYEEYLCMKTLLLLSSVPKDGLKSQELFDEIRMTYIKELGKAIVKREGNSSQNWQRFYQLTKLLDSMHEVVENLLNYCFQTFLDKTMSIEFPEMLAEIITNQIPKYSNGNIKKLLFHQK
In short: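 Competitive fluorescence polarization using a red fluorescent glucocorticoid tracer and GR in kit buffer. Compounds in 1:4 DMSO serial dilution, incubated with tracer and receptor overnight at 4° C before polarization read-out.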

IL-6 = test: A549 Cell Assay to Measure Inflammation Markers (inhibition of IL-1β-induced IL-6); format: cell-based; details: A549 cells, read-out: A549 cell assay
In short: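 A549 cells pre-incubated 1 h with compound (10-point dilution, 0.1% DMSO final) in charcoal-stripped serum medium, then stimulated 4 h with 1 ng/mL IL-1β at 37° C. Supernatant IL-6 measured by MSD immunoassay; IC50 and Emax relative to 1 μM prednisolone as 100% inhibition; viability checked by CellTiter-Glo.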

## CC[C@]12CC[C@](O)(C(F)(F)F)C[C@H]1CCCc1c2cc2cnn(-c3ccc(F)cc3)c2c1Br [Example 92, (3R,4aR,12bS)-8-Bromo-12b-ethyl-9-(4-fluorophenyl)-3-(trifluoromethyl)-1,2,3,4,4a,5,6,7,9,12b-decahydrobenzo[6,7]cyclohepta[1,2-f]indazol-3-ol]
[1]
  IC50: 100 to 1000 nM
IL-6; Homo sapiens
  IC50: > 10000 nM

## CC[C@]12CC[C@](O)(C(F)(F)F)C[C@H]1CC=Cc1cc3c(cnn3-c3ccc(F)cc3)cc12 [Example 93, (3R,4aR,12bS)-12b-Ethyl-9-(4-fluorophenyl)-3-(trifluoromethyl)-1,2,3,4,4a,5,9,12b-octahydrobenzo[6,7]cyclohepta[1,2-f]indazol-3-ol]
[1]
  IC50: < 100 nM
IL-6; Homo sapiens
  IC50: > 10000 nM

## CC[C@@]1(O)CC[C@@]2(Cc3ccccn3)c3cc4cnn(-c5ccc(F)cc5)c4cc3C(=O)CC[C@H]2C1 [Example 94, (3R,4aS,12bS)-3-Ethyl-9-(4-fluorophenyl)-3-hydroxy-12b-(pyridin-2-ylmethyl)-1,2,3,4,4a,5,6,12b-octahydrobenzo[6,7]cyclohepta[1,2-f]indazol-7(9H)-one]
[1]
  IC50: < 100 nM
IL-6; Homo sapiens
  IC50: < 100 nM

## CC[C@@]12CC[C@](O)(C(F)(F)F)C[C@H]1CCCc1c2cc2cnn(-c3ccc(F)cc3)c2c1Br [Example 102, (3R,4aR,12bR)-8-Bromo-12b-ethyl-9-(4-fluorophenyl)-3-(trifluoromethyl)-1,2,3,4,4a,5,6,7,9,12b-decahydrobenzo[6,7]cyclohepta[1,2-f]indazol-3-ol]
[1]
  IC50: < 100 nM
IL-6; Homo sapiens
  IC50: < 100 nM

## CC[C@@]12CC[C@](O)(C(F)(F)F)C[C@H]1CCCc1c2cc2cnn(-c3ccc(F)cc3)c2c1C [Example 103, (3R,4aR,12bR)-12b-Ethyl-9-(4-fluorophenyl)-8-methyl-3-(trifluoromethyl)-1,2,3,4,4a,5,6,7,9,12b-decahydrobenzo[6,7]cyclohepta[1,2-f]indazol-3-ol]
[1]
  IC50: < 100 nM
IL-6; Homo sapiens
  IC50: < 100 nM

## CC[C@@]12CC[C@](O)(C(F)(F)F)C[C@H]1CCC(=O)c1cc3c(cnn3-c3ccc(F)cc3)cc12 [Example 105, (3R,4aR,12bR)-12b-Ethyl-9-(4-fluorophenyl)-3-hydroxy-3-(trifluoromethyl)-1,2,3,4,4a,5,6,12b-octahydrobenzo[6,7]cyclohepta[1,2-f]indazol-7(9H)-one]
[1]
  IC50: < 100 nM
IL-6; Homo sapiens
  IC50: < 100 nM

## CC[C@@]12C[C@H](O)[C@@](O)(C(F)(F)F)C[C@H]1CCCc1cc3c(cnn3-c3ccc(F)cc3)cc12 [Example 108, (2S,3R,4aR,12bR)-12b-Ethyl-9-(4-fluorophenyl)-3-(trifluoromethyl)-1,2,3,4,4a,5,6,7,9,12b-decahydrobenzo[6,7]cyclohepta[1,2-f]indazole-2,3-diol]
[1]
  IC50: < 100 nM
IL-6; Homo sapiens
  IC50: < 100 nM

## CC#C[C@@]1(O)CC[C@@]2(CC)c3cc4cnn(-c5ccc(F)cc5)c4cc3CCC[C@@H]2C1 [Example 111]
[1]
  IC50: < 100 nM
IL-6
  IC50: < 100 nM

## CC#C[C@]1(O)CC[C@]2(CC)c3cc4cnn(-c5ccc(F)cc5)c4cc3CCC[C@H]2C1 [Example 112]
[1]
  IC50: 100 to 1000 nM
IL-6
  IC50: < 100 nM

## CC[C@@]1(O)CC[C@@]2(CC)c3cc4cnn(-c5ccc(F)cc5)c4cc3CCC[C@@H]2C1 [Example 113, (3R,4aR,12bR)-3,12b-Diethyl-9-(4-fluorophenyl)-1,2,3,4,4a,5,6,7,9,12b-decahydrobenzo[6,7]cyclohepta[1,2-f]indazol-3-ol]
[1]
  IC50: < 100 nM
IL-6; Homo sapiens
  IC50: < 100 nM

## CC[C@]1(O)CC[C@]2(CC)c3cc4cnn(-c5ccc(F)cc5)c4cc3CCC[C@H]2C1 [Example 114]
[1]
  IC50: 100 to 1000 nM
IL-6
  IC50: 100 to 1000 nM

## CC[C@]12CC[C@](O)(CN[C@H](C)c3ccccc3)C[C@@H]1CCCc1cc3c(cnn3-c3ccc(F)cc3)cc12 [Example 125, (3R,4aS,12bS)-12b-ethyl-9-(4-fluorophenyl)-3-((((R)-1-phenylethyl)amino)methyl)-1,2,3,4,4a,5,6,7,9,12b-decahydrobenzo[6,7]cyclohepta[1,2-f]indazol-3-ol]
[1]
  IC50: 100 to 1000 nM
IL-6; Homo sapiens
  IC50: > 10000 nM

## CC[C@@]12CC[C@@](O)(CN[C@H](C)c3ccccc3)C[C@H]1CCCc1cc3c(cnn3-c3ccc(F)cc3)cc12 [Example 126, (3S,4aR,12bR)-12b-ethyl-9-(4-fluorophenyl)-3-((((R)-1-phenylethyl)amino)methyl)-1,2,3,4,4a,5,6,7,9,12b-decahydrobenzo[6,7]cyclohepta[1,2-f]indazol-3-ol]
[1]
  IC50: < 100 nM
IL-6; Homo sapiens
  IC50: > 10000 nM

## CC[C@]12CC[C@@](O)(COC)C[C@H]1CCOc1cc3c(cnn3-c3ccc(F)cc3)cc12 [Example 130]
[1]
  IC50: < 100 nM
IL-6
  IC50: > 10000 nM

## CC[C@@]12CC[C@](O)(COC)C[C@@H]1CCOc1cc3c(cnn3-c3ccc(F)cc3)cc12 [Example 131]
[1]
  IC50: < 100 nM
IL-6
  IC50: < 100 nM

## CC[C@]12CC[C@@](O)(COC)C[C@H]1CCOc1cc3c(cnn3-c3ccncc3)cc12 [Example 133]
[1]
  IC50: 100 to 1000 nM
IL-6; Homo sapiens
  IC50: > 10000 nM

## CC[C@@]12CC[C@](O)(COC)C[C@@H]1CCOc1cc3c(cnn3-c3ccncc3)cc12 [Example 134]
[1]
  IC50: < 100 nM
IL-6; Homo sapiens
  IC50: < 100 nM

## CC[C@@]12CC[C@](O)(COC)C[C@@H]1CCOc1cc3c(cnn3-c3ccnc(OC)c3)cc12 [Example 138]
[1]
  IC50: < 100 nM
IL-6
  IC50: 1000 to 10000 nM

## CC[C@@]12CC[C@](O)(COC)C[C@@H]1CCOc1cc3c(cnn3-c3ccnc(C(F)(F)F)c3)cc12 [Example 141]
[1]
  IC50: < 100 nM
IL-6
  IC50: 1000 to 10000 nM

## CC[C@@]12CC[C@@](C)(O)C[C@@H]1CCOc1cc3c(cnn3-c3ccnc(C)c3)cc12 [Example 143]
[1]
  IC50: < 100 nM
IL-6; Homo sapiens
  IC50: < 100 nM

## CC[C@@]12CC[C@](O)(CC#N)C[C@@H]1CCOc1cc3c(cnn3-c3ccnc(C)c3)cc12 [Example 145]
[1]
  IC50: < 100 nM
IL-6; Homo sapiens
  IC50: < 100 nM

## COC[C@@]1(O)CC[C@@]2(Cc3ccccn3)c3cc4cnn(-c5ccc(F)cc5)c4nc3CCC[C@@H]2C1 [Example 156]
[1]
  IC50: < 100 nM
IL-6
  IC50: < 100 nM

## COC[C@@]1(O)CC[C@@]2(Cc3ncccn3)c3cc4cnn(-c5ccc(F)cc5)c4nc3CCC[C@H]2C1 [Example 158]
[1]
  IC50: < 100 nM
IL-6
  IC50: < 100 nM

## N#CC[C@]1(O)CC[C@]2(Cc3ncccn3)c3cc4cnn(-c5ccc(F)cc5)c4nc3CCC[C@@H]2C1 [Example 160]
[1]
  IC50: < 100 nM
IL-6
  IC50: < 100 nM

## C[C@]1(O)CC[C@]2(Cc3ncccn3)c3cc4cnn(-c5ccc(F)cc5)c4nc3CCC[C@@H]2C1 [Example 162]
[1]
  IC50: 100 to 1000 nM
IL-6
  IC50: 1000 to 10000 nM

## N#CC[C@@]1(O)CC[C@@]2(Cc3ccccn3)c3cc4cnn(-c5ccc(F)cc5)c4nc3CCC[C@H]2C1 [Example 163]
[1]
  IC50: < 100 nM
IL-6
  IC50: < 100 nM

## N#CC[C@@]1(O)CC[C@@]2(Cc3ncccn3)c3cc4cnn(-c5ccc(F)cc5)c4nc3CCC[C@H]2C1 [Example 165]
[1]
  IC50: < 100 nM
IL-6
  IC50: < 100 nM

## CC[C@@]12CC[C@](O)(C(F)(F)F)C[C@H]1CCCc1cc3c(cnn3-c3ccc(S(C)(=O)=O)cc3)cc12 [Example 168, (3R,4aR,12bR)-12b-ethyl-9-(4-(methylsulfonyl)phenyl)-3-(trifluoromethyl)-1,2,3,4,4a,5,6,7,9,12b-decahydrobenzo[6,7]cyclohepta[1,2-f]indazol-3-ol]
[1]
  IC50: < 100 nM
IL-6; Homo sapiens
  IC50: < 100 nM
